Results taken from patent US20070287672A1, “Macromolecular Gsh-Activiated Glyoxylase I Inhibitors” (priority 2004, published 2007).

How the values were obtained:
[1] = tested on: murine leukemia L1210 cells; conditions: cited from earlier work; for IC50: diethyl ester prodrugs, after 72 hours of incubation, read-out: IC50, growth inhibition of L1210 cells in culture
[2] = target: T1, bovine liver GlxII (Bos taurus, UniProt Q3B7M2); conditions: cited from earlier work
T1 construct: host or cells: bovine liver

[3] = tested on: PC3 prostate tumors; conditions: intravenous administration, tumor-bearing mice; cited from earlier work
[4] = tested on: HT29 human colon tumors; conditions: intravenous administration, tumor-bearing mice; cited from earlier work
[5] = tested on: B16 melanotic melanoma; conditions: intravenous administration, tumor-bearing mice; cited from earlier work
[6] = intravenous administration, tumor-bearing mice; cited from earlier work
[7] = potassium phosphate buffer, 25° C., cited from earlier work
[8] = tested on: several different tumor cell lines; conditions: in vitro; cited from earlier work
[9] = tested on: Murine B16 melanotic melanoma; test: In vitro cytotoxicity, growth inhibition of B16 melanotic melanoma; type: cell-based; conditions: 72 hours
Procedure: Murine B16 melanotic melanoma was obtained from the DCT Tumor Repository (NCI-Cancer Research and Development Center, Frederick, Md.) and was maintained in RPMI 1640 medium containing L-glutamate (Gibco BRL, Gaithersburg, Md.), supplemented with 10% heat-inactivated fetal calf serum and gentamycin (10 μg/mL), under 37° C. humidified air containing 5% CO2. Under these conditions B16 cells have a doubling time of about 26 hours. For the toxicity studies, cells in logarithmic growth were introduced into 24 well plates at a density of 2×10^4 cells/ml in the absence and presence of drug spanning the IC50 values.
After 72 hours, the cells were washed with Hank's balanced salt solution without Ca^2+, treated with trypsin for 10 minutes at 37° C., concentrated by centrifugation and cell densities determined with a Coulter Counter. Cell viabilities were determined by the trypan blue exclusion method (Kaltenbach et al, Exp. Cell. Res. 15:112-117 (1958)).
Reported IC50 values (mean ±standard deviation of triplicate determinations carried out in three separate assays on different days) were calculated using the Hill equation and the program ADAPT (D'Argenio and Schumitzky, Comput. Methods Programs Biomed. 9:115-134 (1979)).

## CCOC(=O)CNC(=O)C(CSC(=O)N(O)c1ccc(Br)cc1)NC(=O)CCC(N)C(=O)OCC (centres unmarked) [BHG(Et)2]
[1]
  IC50: 16 µM

## N[C@@H](CCC(=O)N[C@@H](CSC(=O)N(O)c1ccc(Br)cc1)C(=O)NCC(=O)O)C(=O)O [BHG, S—(N-p-bromophenyl-N-hydroxycarbamoyl)glutathione]
[2]
  substrate for bovine liver GlxII: substrates for bovine liver GlxII

## CCOC(=O)CNC(=O)[C@H](CSC(=O)N(O)c1ccc(Cl)cc1)NC(=O)CC[C@H](N)C(=O)OCC [CHG(Et)2]
[3]
  inhibition of tumor growth, PC3 prostate tumors: inhibits the growth
[4]
  inhibition of tumor growth, HT29 human colon tumors: inhibits the growth
[5]
  inhibition of tumor growth, B16 melanotic melanoma: inhibits the growth
[1]
  IC50: 5 µM
[1]; in culture
  toxicity to L1210 cells versus normal splenic lymphocytes: significantly more toxic to murine leukemia L1210 cells than to normal splenic lymphocytes
[6]
  side effects in short term efficacy studies: did not detect any significant side effects
  tissue distribution of the prodrug: appearance of the prodrug in all major organs

## N[C@@H](CCC(=O)N[C@@H](CSC(=O)N(O)c1ccc(Cl)cc1)C(=O)NCC(=O)O)C(=O)O [CHG, S—(N-p-chlorophenyl-N-hydroxycarbamoyl)glutathione]
[2]
  substrate for bovine liver GlxII: substrates for bovine liver GlxII

## CC[S+]([O-])C(=O)N(O)c1ccc(Cl)cc1 (centres unmarked) [Compound 2, S—(N-4-chlorophenyl-N-hydroxycarbamoyl)ethyl sulfoxide]
[7]; 0.1 M (pH 7.5)
  rate constant k for reaction of GSH with the simple sulfoxide: 30.7 ± 1.2 M⁻¹ s⁻¹
[8]
  cytostatic and cytotoxic activity on tumor cell lines: cytostatic and cytotoxic
[9]
  IC50 value relative to that of HPMA-8-sulfoxide (P1), fold lower: five to ten-fold lower

## CCC[S+]([O-])C(=O)N(O)c1ccc(Cl)cc1 (centres unmarked) [Compound 2a, S—(N-4-Chlorophenyl-N-hydroxycarbamoyl)propyl sulfoxide]
[9]
  IC50 value relative to that of HPMA-8-sulfoxide (P1), fold lower: five to ten-fold lower

## CCCC[S+]([O-])C(=O)N(O)c1ccc(Cl)cc1 (centres unmarked) [Compound 2b, S—(N-4-Chlorophenyl-N-hydroxycarbamoyl)butyl sulfoxide]
[9]
  IC50 value relative to that of HPMA-8-sulfoxide (P1), fold lower: five to ten-fold lower

## C/C=C/C(=O)OCC1=CCCCC1=O [Compound 3, 2-crotonyloxymethyl-2-cyclohexenone]
[7]; 0.1 M (pH 6.5)
  rate constant k for reaction of GSH with the crotonate ester: 1.13 ± 0.017 M⁻¹ s⁻¹
[9]
  IC50 value relative to that of HPMA-7 (P4), fold lower: over 7000 fold

## CCOC(=O)CNC(=O)C(CSC(=O)N(O)c1ccccc1)NC(=O)CCC(N)C(=O)OCC (centres unmarked) [PHG(Et)2]
[1]
  IC50: 63 µM

## CN(O)C(=O)SC[C@H](NC(=O)CC[C@H](N)C(=O)O)C(=O)NCC(=O)O [S—(N-methyl-N-hydroxycarbamoyl)glutathione]
[2]
  substrate for bovine liver GlxII: substrates for bovine liver GlxII

## N[C@@H](CCC(=O)N[C@@H](CSC(=O)N(O)c1ccccc1)C(=O)NCC(=O)O)C(=O)O [S—(N-phenyl-N-hydroxycarbamoyl)glutathione]
[2]
  substrate for bovine liver GlxII: substrates for bovine liver GlxII
